This note sets out measurements from ChEMBL document CHEMBL1201862, “PubChem BioAssay data set” (2004).

One experiment deals with T1, Caspase-6 (Homo sapiens, UniProt P55212).
T1 sequence (P55212 whole entry): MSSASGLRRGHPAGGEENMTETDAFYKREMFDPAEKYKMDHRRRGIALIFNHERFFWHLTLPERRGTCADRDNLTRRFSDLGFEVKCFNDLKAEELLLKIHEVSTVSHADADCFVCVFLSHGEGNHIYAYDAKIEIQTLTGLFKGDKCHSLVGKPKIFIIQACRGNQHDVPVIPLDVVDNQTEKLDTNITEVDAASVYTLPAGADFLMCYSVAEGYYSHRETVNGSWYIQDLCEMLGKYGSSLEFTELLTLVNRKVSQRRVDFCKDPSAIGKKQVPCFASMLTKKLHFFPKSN
Description: human caspase-6 inhibitors, dose response, biochemical, VEID-R110 fluorescence, cherry-pick (AID 720632).

Experiment [1] addresses T2, Sentrin-specific protease 6 (Homo sapiens, UniProt Q9GZR1).
T2 sequence (Q9GZR1 whole entry): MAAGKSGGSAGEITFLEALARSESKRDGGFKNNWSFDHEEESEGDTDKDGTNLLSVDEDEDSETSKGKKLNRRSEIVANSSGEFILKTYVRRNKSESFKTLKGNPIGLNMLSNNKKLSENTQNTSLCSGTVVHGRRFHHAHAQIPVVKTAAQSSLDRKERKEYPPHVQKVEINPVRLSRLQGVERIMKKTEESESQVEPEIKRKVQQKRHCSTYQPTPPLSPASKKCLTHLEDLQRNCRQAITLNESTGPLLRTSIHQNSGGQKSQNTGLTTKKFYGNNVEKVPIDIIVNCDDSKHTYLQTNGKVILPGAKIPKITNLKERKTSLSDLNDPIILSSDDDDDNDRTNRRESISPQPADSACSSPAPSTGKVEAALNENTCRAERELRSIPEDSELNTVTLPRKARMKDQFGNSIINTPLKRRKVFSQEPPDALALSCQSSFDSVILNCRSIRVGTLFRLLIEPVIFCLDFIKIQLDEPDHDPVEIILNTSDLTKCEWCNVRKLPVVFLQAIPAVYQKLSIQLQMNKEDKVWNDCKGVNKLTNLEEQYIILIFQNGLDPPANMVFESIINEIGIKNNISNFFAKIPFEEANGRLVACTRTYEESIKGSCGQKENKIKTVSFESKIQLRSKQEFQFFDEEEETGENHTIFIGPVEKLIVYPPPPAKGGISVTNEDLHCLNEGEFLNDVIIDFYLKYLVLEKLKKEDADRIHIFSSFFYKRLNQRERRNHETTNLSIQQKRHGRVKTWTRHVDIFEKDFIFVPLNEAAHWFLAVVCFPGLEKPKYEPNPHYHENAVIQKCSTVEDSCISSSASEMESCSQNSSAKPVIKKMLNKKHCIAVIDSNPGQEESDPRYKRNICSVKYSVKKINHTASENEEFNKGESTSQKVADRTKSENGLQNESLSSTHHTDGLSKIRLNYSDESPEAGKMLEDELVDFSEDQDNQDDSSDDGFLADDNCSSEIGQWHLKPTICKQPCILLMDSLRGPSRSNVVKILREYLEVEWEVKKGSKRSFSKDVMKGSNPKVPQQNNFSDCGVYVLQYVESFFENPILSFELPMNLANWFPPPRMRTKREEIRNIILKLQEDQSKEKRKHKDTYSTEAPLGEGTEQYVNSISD
Type of experiment: functional.

The nature of another experiment: cells. Type of experiment: functional, cell-based. The following applies: HEK-CNG.
In experiment [2] the target is T3, Endoribonuclease toxin MazF (Escherichia coli K-12, UniProt P0AE70).
T3 sequence (P0AE70 whole entry): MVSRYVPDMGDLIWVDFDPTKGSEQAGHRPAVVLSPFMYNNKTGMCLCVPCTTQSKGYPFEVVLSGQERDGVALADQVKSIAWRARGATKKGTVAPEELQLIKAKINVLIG
As to the kind of experiment: SAR analysis of small molecule activators of the MazEF TA System via a fluorescence-based single-stranded RNase assay counterscreen. [Related pubchem assays (depositor defined):AID504720, AID504743]. Type of experiment: functional. (In general: Counterscreens check selectivity or assay interference.)

The target of experiment [3] is T3, Endoribonuclease toxin MazF. Description: fluorescent RNA oligo signal without MazF, dose response, counter-screen for MazEF activator project, biochemical, fluorescence, single-stranded RNase substrate (AID 588502). Type of experiment: functional.
The target of experiment [4] is Sphingosine 1-phosphate receptor 2 (Homo sapiens, UniProt O95136). Description: Dose Response Cell Based Assay for Antagonists of the S1P2 Receptor. [Related pubchem assays: 856, 736 ]. The format is functional.
Sequence of Sphingosine 1-phosphate receptor 2 (O95136 whole entry): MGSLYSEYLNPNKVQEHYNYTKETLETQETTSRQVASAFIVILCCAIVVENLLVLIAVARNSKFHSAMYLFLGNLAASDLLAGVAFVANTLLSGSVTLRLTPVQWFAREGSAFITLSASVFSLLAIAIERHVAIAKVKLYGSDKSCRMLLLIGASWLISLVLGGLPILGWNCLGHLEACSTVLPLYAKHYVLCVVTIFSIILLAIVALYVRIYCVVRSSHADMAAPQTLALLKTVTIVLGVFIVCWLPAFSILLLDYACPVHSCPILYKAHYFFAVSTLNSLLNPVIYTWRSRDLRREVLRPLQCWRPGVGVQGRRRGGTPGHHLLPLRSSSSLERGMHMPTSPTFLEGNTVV
Experiment [5] relates to BJ. As to the kind of experiment: cytotoxicity toward BJ-TERT fibroblasts, dose response, cell-based, RAS-independent, luminescence (AID 1933). Type of experiment: functional. To be noted: Homo sapiens.
The nature of experiment [6]: HepG2 cell cytotoxicity, dose response, cytotoxicity control for non-replicating M. tuberculosis project (AID 489018). Type of experiment: functional. To be noted: Mycobacterium tuberculosis.
Experiment [7] has as its system Streptococcus sp. 'group A'. As to the kind of experiment: growth inhibition of control SK(-) GAS strain, dose response, counter-screen for streptokinase expression inhibitor project, luminescence, kanamycin, BacTiterGlo, confirmation (AID 1900). The format is functional, organism-based.
The nature of experiment [8]: growth suppression of PTEN-null colon cells, dose response, cell-based, HCT116 PTEN knockout (AID 1047).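 Also: HCT116 colon tumor cells with PTEN knocked out; cells exposed to compound for 60 hours before readout; potency for loss of cell viability measured by luminescence.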 The format is functional.
The nature of experiment [9]: cytotoxicity toward DRD oncogenic fibroblasts, dose response, cell-based, non-viral oncogenic, luminescence (AID 1934). The format is functional. The following applies: Homo sapiens.
Experiment [10] deals with BJ. As to the kind of experiment: cells. Type of experiment: functional, cell-based. The following applies: Homo sapiens.
In experiment [11] the target is T4, Tyrosine-protein phosphatase non-receptor type 22 (Homo sapiens, UniProt Q9Y2R2).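 Also: confirmatory dose-response retest of primary uHTS hits for inhibition of LYP phosphatase, measured by a fluorescence intensity read-out.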
T4 sequence (Q9Y2R2 whole entry): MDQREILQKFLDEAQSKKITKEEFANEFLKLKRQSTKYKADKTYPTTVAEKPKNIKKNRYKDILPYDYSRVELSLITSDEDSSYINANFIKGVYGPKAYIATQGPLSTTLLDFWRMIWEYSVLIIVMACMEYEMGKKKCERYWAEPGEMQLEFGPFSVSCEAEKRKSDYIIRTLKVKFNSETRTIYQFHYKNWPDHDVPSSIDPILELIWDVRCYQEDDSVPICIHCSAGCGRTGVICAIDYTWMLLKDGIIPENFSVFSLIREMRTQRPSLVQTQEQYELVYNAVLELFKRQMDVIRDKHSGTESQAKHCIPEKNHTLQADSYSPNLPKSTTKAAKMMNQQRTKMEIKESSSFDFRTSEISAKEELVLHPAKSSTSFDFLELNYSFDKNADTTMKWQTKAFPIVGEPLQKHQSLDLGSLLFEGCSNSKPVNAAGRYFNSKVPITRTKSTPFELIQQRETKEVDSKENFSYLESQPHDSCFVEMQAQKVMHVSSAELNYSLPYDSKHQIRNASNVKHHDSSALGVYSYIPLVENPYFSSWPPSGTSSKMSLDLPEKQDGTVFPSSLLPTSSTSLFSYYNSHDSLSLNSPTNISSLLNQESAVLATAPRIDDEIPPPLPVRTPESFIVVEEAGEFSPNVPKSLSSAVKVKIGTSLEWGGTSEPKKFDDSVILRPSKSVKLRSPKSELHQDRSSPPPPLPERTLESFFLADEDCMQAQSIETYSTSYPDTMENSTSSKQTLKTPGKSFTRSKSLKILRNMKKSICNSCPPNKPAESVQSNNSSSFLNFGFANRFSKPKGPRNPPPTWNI
The format is functional.

The source made the active and inactive calls.

As a reminder, the AC50 is the concentration at which the activity in the assay is half-maximal. As usually defined, the IC50 is the concentration at which inhibition is half-maximal. The EC50 is the concentration that produces a half-maximal response. By CC50 is commonly meant the concentration at which the toxic effect on the cells reaches its halfway point.

As to `Oc1nc(Nc2ccccc2Cl)cc2ccccc12`, on Caspase-6, the AC50 is 3.75 µM (active). For the same compound, in experiment [1], the IC50 is 3.14 µM (active).

In the case of `O=C1C=C(c2c(O)ccc3ccccc23)c2ccccc2C1=O`, the values for the EC50 (in “cells”; in experiment [2]; in experiment [3]) were > 29.9 µM (inactive), > 99 µM (inactive) and > 99 µM (inactive), respectively.

For the compound `Cc1nc2c(=O)n(C)c(=O)nc-2n(C)n1`, the values for the half-inhibitory concentration (IC50) in experiment [4] and in [11] were 1.4 µM (active) and < 1.24 µM (active), respectively. Further, the EC50 is 4.56 µM (active) in the experiment on BJ [5]; 4.74 µM (active) in experiment [7]; 0.821 µM (active) in experiment [8]; 4.39 µM (active) in experiment [9]; 5.69 µM (active) with BJ [10]. For the same compound, the 50% cytotoxic concentration (CC50) in experiment [6] was 4.16 µM (active).
